The conditions of series [1]: 298.15 K, 101.33 kPa, Liquid.
Series [2] is described as follows: refractive index (Na D-line) (dimensionless). To be noted: 298.15 K; 101.33 kPa; Liquid; Standard Abbe refractometry.

Results on 5 molecules are retold here after the NIST ThermoML archive (doi:10.1016/j.jct.2008.01.025).

Numbers after ± are expanded uncertainties.

One may read the mass density as the mass of a sample divided by its volume. One may read the refractive index as a measure of how strongly the sample bends light. On to `CCCCCCCCCCCCCCCC` [hexadecane], for which the mass density in series [1] came out at 771.15 ± 0.85 kg/m3. The refractive index in series [2] was 1.43232 ± 0.0004.
Turning to `c1ccsc1` [thiophene], the mass density in series [1] was 1058.5 ± 0.28 kg/m3. Moreover, the refractive index in series [2] was 1.52581 ± 0.00036.
As to `CCCCCCCCCCCC` [dodecane], the mass density in series [1] turned out to be 745.32 ± 0.91 kg/m3. In series [2], the refractive index is on record as 1.42011 ± 0.0004.
As for `CCCCCCC` [heptane], in series [1], the mass density is recorded as 679.466 ± 0.66 kg/m3. Besides, in series [2], the refractive index amounted to 1.38517 ± 0.00036.
`CCCCCCCC[n+]1ccn(C)c1.F[B-](F)(F)F` [1-methyl-3-octylimidazolium tetrafluoroborate]: the mass density in series [1] (Vibrating tube method) worked out at 1104.42 ± 2.3 kg/m3. Moreover, the refractive index in series [2] amounted to 1.43329 ± 0.00069.
